Measurements taken from patent publication US9561238B2, “Pharmaceutical compositions comprising estetrol derivatives for use in cancer therapy” (Donesta Bioscience B. V., priority 2002, dated 2017).

Columns and labels:
[1] = Agonistic models of in vivo estrogenicity (bone resorption, hot flushing, vaginal cornification), previous studies; conditions: for in vivo estrogenicity in preventing bone resorption, prevention of hot flushing and vaginal cornification: 0.125 mg/kg/day EE compared with […] E4; for potency in agonistic models of preventing bone resorption, prevention of hot flushing and vaginal cornification: […] EE compared with 0.5 mg/kg/day E4
[2] = system: DMBA-induced mammary tumours; experiment: 7,12-dimethyl-benz(a)anthracene (DMBA)-induced tumour model in rats; type: in vivo, rat
Protocol: In order to further assess the anti-tumour efficacy of the estrogenic substances of the present invention, estetrol was tested in the 7,12-dimethyl-benz(a)anthracene (DMBA)-induced tumour model in rats. This model, originally developed by Huggins et al., 1961 (Nature, 19, 204-207), has been widely used and is a generally accepted model with predictive value for anti-tumour agents in humans.
Eighty-four female Sprague-Dawley rats (Harlan, The Netherlands) were group housed, maintained in a 12-hr light/dark environment, and fed a Soya Free Diet (SDS England) and water ad libitum. Animals were weighed on a weekly basis. One week prior to induction of mammary carcinoma, 12 animals (aged 43 days) were surgically castrated via removal of the ovaries. At the age of 50 days, all animals were administered a single oral dose of 16 mg DMBA to induce tumour development. […]
During the treatment period of 8 weeks, the emergence of palpable tumours and number of tumours were determined weekly. […]

[3] = system: DMBA-induced mammary tumours; conditions: literature; cited from earlier work
[4] = system: DMH-induced malignant colon tumours; conditions: previously published; cited from earlier work
human ERα = human ERα (Homo sapiens (Human), UniProt P03372); experiment: Competitive steroid binding assay, ERα; conditions: preference for binding to ERα protein over ERβ, from Ki values
human ERα, sequence (P03372 whole entry): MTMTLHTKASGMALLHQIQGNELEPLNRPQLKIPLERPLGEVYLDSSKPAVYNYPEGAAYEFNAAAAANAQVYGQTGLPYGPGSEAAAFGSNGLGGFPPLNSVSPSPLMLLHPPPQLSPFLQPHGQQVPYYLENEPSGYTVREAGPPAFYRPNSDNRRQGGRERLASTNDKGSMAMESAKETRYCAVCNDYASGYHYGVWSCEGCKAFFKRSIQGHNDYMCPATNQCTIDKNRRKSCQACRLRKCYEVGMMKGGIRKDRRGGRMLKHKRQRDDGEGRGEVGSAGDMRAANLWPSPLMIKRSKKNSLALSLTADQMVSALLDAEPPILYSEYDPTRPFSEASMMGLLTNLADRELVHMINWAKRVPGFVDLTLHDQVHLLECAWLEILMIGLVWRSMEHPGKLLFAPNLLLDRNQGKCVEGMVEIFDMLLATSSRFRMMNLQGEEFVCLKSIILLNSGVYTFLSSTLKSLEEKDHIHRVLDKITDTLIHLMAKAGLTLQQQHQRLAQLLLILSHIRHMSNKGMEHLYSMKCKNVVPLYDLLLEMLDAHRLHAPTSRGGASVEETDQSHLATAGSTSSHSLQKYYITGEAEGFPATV

[5] = system: DMH-induced malignant colon tumours; experiment: 1,2 dimethylhydrazine (DMH)-induced colon cancer in ovariectomized female rats; type: in vivo, rat; conditions: estetrol orally 0.1 to 3.0 mg/kg/day; necropsy 15 weeks after first DMH
Protocol: A study is performed to examine the effect of estetrol on 1,2 dimethylhydrazine (DMH)-induced colon cancer in ovariectomized female rats.
DMH-induced cancer development is chosen as a model of “estrogen-suppressed tumours”, because it mimics the human situation of colon carcinomas closely:
One week prior to induction of colon carcinomas, fifty sexually mature female Sprague-Dawley rats, weighing between 150 and 200 gram (Harlan, The Netherlands), are surgically castrated via removal of the ovaries. During the experiment, rats are maintained in separate plastic cages at 12 hour light/dark cycles and allowed free access to food (Purina chow) and water.
Animals are randomly allocated to one of five groups, each consisting of 10 rats, which, starting three days after ovariectomy and ending at autopsy, receive placebo or estetrol treatment during the experiment as follows: • Group 1 animals receiving placebo oral treatment with 3.0 ml/kg/day vehicle (20% wt/vol solution of hydroxypropyl-beta-cyclodextrin in water); • Group 2 animals receiving estetrol orally at a single daily dose of 0.1 mg/kg; • Group 3 animals receiving estetrol orally at a single daily dose of 0.3 mg/kg; • Group 4 animals receiving estetrol orally at a single daily dose of 1.0 mg/kg; • Group 5 animals receiving estetrol orally at a single daily dose of 3.0 mg/kg. […]

SMILES: C#C[C@]1(O)CC[C@H]2[C@@H]3CCc4cc(O)ccc4[C@H]3CC[C@@]21C [EE, 17α-ethinylestradiol]
- in vivo estrogenicity in preventing bone resorption, prevention of hot flushing and vaginal cornification [1]: equipotency
- potency in agonistic models of preventing bone resorption, prevention of hot flushing and vaginal cornification [1]: equipotency

SMILES: CC/C(=C(\c1ccccc1)c1ccc(OCCN(C)C)cc1)c1ccccc1 [tamoxifen]
- development of mammary tumours ([2]; tamoxifen 3 mg/kg/day orally, 8 weeks): inhibiting the development of mammary tumours
- anti-tumour treatment in the DMBA model [3]: effective anti-tumour treatments

SMILES: C[C@]12CC[C@@H]3c4ccc(O)cc4CC[C@H]3[C@@H]1CC[C@@H]2O [E2, 17β-estradiol]
- protection in the DMH model [4]: confers protection

SMILES: C[C@]12CC[C@@H]3c4ccc(O)cc4CC[C@H]3[C@@H]1[C@@H](O)[C@@H](O)[C@@H]2O [E4, 1,3,5(10)-estratrien-3,15α,16α,17β-tetrol]
- Relative ERα/ERβ preference (human ERα): 400%
- number of malignant tumours [5]: declines as a function of increasing the daily oral estetrol dose
- preventing growth of DMBA-induced tumours, compared with tamoxifen ([2]; E4 […] vs tamoxifen 3 mg/kg/day orally): as effective as tamoxifen
- in vivo estrogenicity in preventing bone resorption, prevention of hot flushing and vaginal cornification [1]: equipotency
- potency in agonistic models of preventing bone resorption, prevention of hot flushing and vaginal cornification [1]: equipotency
